# Biological target: T1, Mitochondrial peptide methionine sulfoxide reductase (Bos taurus, UniProt P54149)
# T1 sequence (P54149 whole entry): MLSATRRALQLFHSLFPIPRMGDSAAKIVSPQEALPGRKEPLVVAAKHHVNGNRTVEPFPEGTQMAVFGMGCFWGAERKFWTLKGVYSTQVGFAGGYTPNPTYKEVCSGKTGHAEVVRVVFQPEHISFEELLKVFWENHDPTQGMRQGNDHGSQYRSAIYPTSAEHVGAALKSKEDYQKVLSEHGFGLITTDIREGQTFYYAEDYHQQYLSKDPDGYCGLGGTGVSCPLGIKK
row,Compound,IC50 [µM]
1,"CC(N=Nc1ccc(C#N)cc1[N+](=O)[O-])C1C=CC(=O)C=C1 (configuration not stated) [3-nitro-4-[2-[1-(4-oxidanylidenecyclohexa-2,5-dien-1-ylidene)ethyl]hydrazinyl]benzenecarbonitrile]",> 155
2,CCOC(=O)c1cc2c(ccc3ccccc32)oc1=O [3-oxo-2-benzo[f][1]benzopyrancarboxylic acid ethyl ester],> 155
3,COc1ccccc1-c1cc(C(F)(F)F)nc(N2CCOCC2)n1,> 155
4,CC(Nc1ccc([N+](=O)[O-])cc1[N+](=O)[O-])c1ccccc1 (configuration not stated),> 155
5,"COC(=O)/C(=C1/Oc2ccc(C)cc2S1)C(F)(F)F [methyl (2E)-3,3,3-trifluoro-2-(5-methyl-1,3-benzoxathiol-2-ylidene)propanoate]",> 155
6,O=[N+]([O-])c1cnc(Nc2ccc(Cl)cn2)c([N+](=O)[O-])c1,> 155
7,"COc1cccc(/C=N/n2c(CO)nc3ccccc32)c1OC [[1-[(E)-(2,3-dimethoxyphenyl)methylideneamino]-2-benzimidazolyl]methanol]",> 155
8,"CCN(c1ccccc1)c1nc2nonc2nc1NCCO [2-[6-(Ethyl-phenyl-amino)-[1,2,5]oxadiazolo[3,4-b]pyrazin-5-ylamino]-ethanol]",> 155
9,"c1ccc2c(c1)CCCN2c1nc2ccccc2n2cnnc12 [4-(3,4-dihydro-2H-quinolin-1-yl)-[1,2,4]triazolo[4,3-a]quinoxaline]",> 155
10,"O=C(O)Cc1sc(N=NC=CCc2ccccc2)nc1O [2-[4-oxo-2-[(2E)-2-[(E)-3-phenylprop-2-enylidene]hydrazinyl]-1,3-thiazol-5-yl]acetic acid]",97.5
11,"CCOC(=O)c1c(NC(=O)COC(=O)/C=C/c2ccco2)sc2c1CC(C)(C)NC2(C)C [2-[[2-[(E)-3-(2-furanyl)-1-oxoprop-2-enoxy]-1-oxoethyl]amino]-5,5,7,7-tetramethyl-4,6-dihydrothieno[2,3-c]pyridine-3-carboxylic acid ethyl ester]",> 155
12,Cc1ccc(-c2cc(C(F)F)nc(N3CCOCC3)n2)cc1,> 155
13,"COC(=O)c1ccc(S(=O)(=O)N2CCCN(Cc3cccc(Br)c3F)CC2)n1C [5-[[4-[(3-bromo-2-fluorophenyl)methyl]-1,4-diazepan-1-yl]sulfonyl]-1-methyl-2-pyrrolecarboxylic acid methyl ester]",> 155
14,"CCOc1ccc(N(C)S(=O)(=O)c2cc(-c3cc(C)no3)ccc2C(C)C)cc1 [N-(4-ethoxyphenyl)-N-methyl-5-(3-methyl-1,2-oxazol-5-yl)-2-propan-2-yl-benzenesulfonamide]",> 155
15,Nc1nnc(CC(=O)N/N=C/c2ccc(-c3ccccc3)o2)s1,> 155
16,CCOC(=O)C(=CC(C#N)C(=O)OCC)C(=N)N1CCN(c2ccc(OC)cc2)CC1 (configuration not stated),139
17,"CCc1nccn1C(=O)c1cnn2c(C(F)F)cc(-c3ccc(C)cc3)nc12 [7-(difluoromethyl)-3-[(2-ethyl-1H-imidazol-1-yl)carbonyl]-5-(4-methylphenyl)pyrazolo[1,5-a]pyrimidine]",> 155
18,"Cc1ccc(Nc2[nH]nc(C)c2[N+](=O)[O-])cc1C [(3,4-Dimethyl-phenyl)-(5-methyl-4-nitro-2H-pyrazol-3-yl)-amine]",> 155
19,"COc1ccccc1-c1[nH]nc2c1[C@H](C)CC[C@H]2C(C)C [(4R,7S)-3-(2-methoxyphenyl)-4-methyl-7-propan-2-yl-4,5,6,7-tetrahydro-1H-indazole]",> 155
20,"CCCCCc1c(-c2cccc(OC)c2)ncn1CCc1ccccc1OC [4-(3-methoxyphenyl)-1-[2-(2-methoxyphenyl)ethyl]-5-pentyl-imidazole;2,2,2-tris(fluoranyl)ethanoic acid]",> 155
21,"CC1=CC(=C(C#N)C#N)C=C(C)N1CCN1CCNCC1 [2-[2,6-dimethyl-1-(2-piperazin-1-ylethyl)pyridin-4-ylidene]propanedinitrile]",> 155
22,COc1ccc(CNC(=O)c2c(C)oc3c2C(=O)c2ccccc2C3=O)cc1,> 155
23,"CCc1noc(C)c1C(=O)Nc1nc(-c2ccc(F)cc2)c(C)s1 [3-ethyl-N-[4-(4-fluorophenyl)-5-methyl-1,3-thiazol-2-yl]-5-methyl-1,2-oxazole-4-carboxamide]",> 155
24,CCOP(=O)(CCP(=O)(OCC)OCC)OCC [MLS002702923],11
25,"Cc1cc(C)c2nc(C(F)(F)F)nc(N3CC(C)OC(C)C3)c2c1 (configuration not stated) [4-(2,6-dimethyl-4-morpholinyl)-6,8-dimethyl-2-(trifluoromethyl)quinazoline]",> 155
26,Cc1ccc(S(=O)(=O)NCCNc2ccc([N+](=O)[O-])cc2C(F)(F)F)cc1 [4-methyl-N-(2-{[4-nitro-2-(trifluoromethyl)phenyl]amino}ethyl)benzenesulfonamide],> 155
27,"Cc1cc(OCC(=O)N2CCc3ccccc3C2)c2c(-c3ccccc3)cc(=O)oc2c1 [5-[2-(3,4-dihydro-2(1H)-isoquinolinyl)-2-oxoethoxy]-7-methyl-4-phenyl-2H-chromen-2-one]",> 155
28,"O=C(O)c1cccc(N=NCc2sc(N3CCOCC3)nc2-c2ccccc2)c1 [3-[(2E)-2-[(2-morpholin-4-yl-4-phenyl-1,3-thiazol-5-yl)methylidene]hydrazinyl]benzoic acid]",> 155
29,Cc1cccc(Nc2oc3cc(=O)ccc-3cc2C(N)=O)c1 [(2Z)-7-hydroxy-2-[(3-methylphenyl)imino]-2H-chromene-3-carboxamide],> 155
30,"O=C1C(Cl)=C(NCCCN2CCOCC2)C(=O)N1CCc1ccccc1 [3-chloro-4-{[3-(4-morpholinyl)propyl]amino}-1-(2-phenylethyl)-1H-pyrrole-2,5-dione]",> 155

# Next, values leading:
row,IC50 [µM],Compound
1,> 155,COc1ccc(-c2cc(C(F)F)n3ncc(C(=O)n4ccnc4C)c3n2)cc1 [MLS000581677]
2,> 155,N#Cc1c(-n2cccc2CN=O)sc2c1CCCC2 [SMR000009830]
3,> 155,Cc1ccccc1-c1nc(C#N)c(N2CCCCC2)o1 [MLS001165046]
4,> 155,CCOc1cc(S(=O)(=O)NC2CC2)c(OCC)cc1-n1cnnn1 [SMR000123810]
5,> 155,CSc1nc2nc3c(c-2c2nn[nH]n12)CCCC3 [MLS000071223]
6,> 155,CC(=O)COc1ccc2oc(=O)cc(-c3cc4ccccc4o3)c2c1 [SMR000641655]
7,> 155,COc1cccc2cc(-c3cc(=O)oc4ccc(O)cc34)oc12 [SMR000543646]
8,> 155,O=C(N/N=C/c1ccc2c(c1)OCO2)c1ccc(Br)o1 [SMR000185016]
9,> 155,Cc1ccc(NC(=O)C2CCCO2)cc1[N+](=O)[O-] (configuration not stated) [SMR000197718]
10,> 155,CC(Nc1cc(N2CCN(S(=O)(=O)N(C)C)CC2)ccc1[N+](=O)[O-])c1ccccc1 (configuration not stated) [MLS000676463]
11,> 155,Cc1nc2scc(-c3cccs3)c2c(=O)n1-n1cccc1 [MLS000113688]
12,> 155,CNS(=O)(=O)c1cccc(C(=O)OCC(=O)c2cc3ccccc3o2)c1 [SMR000364126]
13,> 155,COC(=O)COc1ccc2oc(=O)cc(-c3cc4cccc(OC)c4o3)c2c1 [MLS001167553]
14,> 155,O=C1c2ccccc2C(=O)c2cc(S(=O)(=O)Nc3ccccc3)ccc21 [MLS000585519]
15,> 155,Cc1ccc(CC2(C)C(=O)Nc3ccc(OC(F)(F)F)cc32)cc1 (configuration not stated) [SMR001453901]
16,> 155,Cc1ccccc1Nc1ncnc2n[nH]cc12 [SMR001556847]
17,> 155,Cc1ccc(/C=C/C(=O)Nc2nccs2)o1 [SMR000261703]

# — BindingDB's records for doi:10.7270/Q2639NCQ (The Scripps Research Institute Molecular Screening Center, 2013)
